Measurements taken from patent publication US9120756B2, “Substituted phenylureas and phenylamides as vanilloid receptor ligands” (Gruenenthal GmbH, priority 2009, dated 2015).

Key:
[1] = target: hVR1 (Homo sapiens (Human), UniProt Q8NER1); test: FLIPR assay human VR1, 45° C. stimulus; format: cell-based; settings: inhibition determined at 2.5 μM, read-out: IC50 (human being) 45° C. column: inhibition (as a percentage) @ 2.5 μM
Text: The agonistic or antagonistic effect of the substances to be tested on the vanilloid receptor 1 (VR1) can also be determined using the following assay. In this assay, the influx of Ca^2+ through the channel is quantified with the aid of a Ca^2+-sensitive dye (type Fluo-4, Molecular Probes Europe BV, Leiden, the Netherlands) in a fluorescent imaging plate reader (FLIPR, Molecular Devices, Sunnyvale, USA).
Chinese hamster ovary cells (CHO K1 cells, European Collection of Cell Cultures (ECACC) United Kingdom) are stably transfected with the VR1 gene. For functional testing, these cells are plated out on poly-D-lysine-coated black 96-well plates having a clear base (BD Biosciences, Heidelberg, Germany) at a density of 25,000 cells/well. The cells are incubated overnight at 37° C. and 5% CO2 in a culture medium (Ham's F12 nutrient mixture, 10% by volume of FCS (foetal calf serum), 18 μg/ml of L-proline). The next day the cells are incubated with Fluo-4 (Fluo-4 2 μM, 0.01% by volume of Pluronic F127, Molecular Probes in HBSS (Hank's buffered saline solution), Gibco Invitrogen GmbH, Karlsruhe, Germany) for 30 minutes at 37° C. Subsequently, the plates are washed three times with HBSS buffer and after further incubation for 15 minutes at RT used for Ca^2+ measurement in a FLIPR assay. The Ca^2+-dependent fluorescence is measured before and after the addition of the substances to be tested (λex wavelength=488 nm, λem=540 nm). Quantification is carried out by measuring the highest fluorescence intensity (FC, fluorescence counts) over time.
The FLIPR protocol consists of 2 substance additions. […]
Desensitising agonists and antagonists led to suppression of the Ca^2+ influx.
Ki values for the test substances were obtained by conversion by means of the Cheng-Prusoff equation (Cheng, Prusoff; Biochem. Pharmacol. 22, 3099-3108, 1973).

[2] = system: mice; test: Formalin test carried out on mice (FTm); format: in vivo; settings: 1 po, percentage change relative to control
Method: In the formalin test, the testing to determine the antinociceptive effect of the compounds according to the invention is carried out on male mice (NMRI, 20 to 30 g body weight, Iffa, Credo, Belgium).
In the formalin test as described by D. Dubuisson et al., Pain 1977, 4, 161-174, a distinction is drawn between the first (early) phase (0 to 15 minutes after the injection of formalin) and the second (late) phase (15 to 60 minutes after the injection of formalin). The early phase, as an immediate reaction to the injection of formalin, is a model of acute pain, whereas the late phase is regarded as a model of persistent (chronic) pain (T. J. Coderre et al., Pain 1993, 52, 259-285). The corresponding descriptions in the literature are introduced herewith by way of reference and form part of the disclosure.
The compounds according to the invention are tested in the second phase of the formalin test to obtain information about the effects of substances on chronic/inflammatory pain. […]
Subsequently, the nociceptive behaviour is continuously detected by observing the animals over a test period of three minutes in the second (late) phase of the formalin test (21 to 24 minutes after the injection of formalin). The pain behaviour is quantified by adding up the seconds over which the animals display licking and biting of the paw in question during the test period. […]

hVR1, sequence (Q8NER1 whole entry): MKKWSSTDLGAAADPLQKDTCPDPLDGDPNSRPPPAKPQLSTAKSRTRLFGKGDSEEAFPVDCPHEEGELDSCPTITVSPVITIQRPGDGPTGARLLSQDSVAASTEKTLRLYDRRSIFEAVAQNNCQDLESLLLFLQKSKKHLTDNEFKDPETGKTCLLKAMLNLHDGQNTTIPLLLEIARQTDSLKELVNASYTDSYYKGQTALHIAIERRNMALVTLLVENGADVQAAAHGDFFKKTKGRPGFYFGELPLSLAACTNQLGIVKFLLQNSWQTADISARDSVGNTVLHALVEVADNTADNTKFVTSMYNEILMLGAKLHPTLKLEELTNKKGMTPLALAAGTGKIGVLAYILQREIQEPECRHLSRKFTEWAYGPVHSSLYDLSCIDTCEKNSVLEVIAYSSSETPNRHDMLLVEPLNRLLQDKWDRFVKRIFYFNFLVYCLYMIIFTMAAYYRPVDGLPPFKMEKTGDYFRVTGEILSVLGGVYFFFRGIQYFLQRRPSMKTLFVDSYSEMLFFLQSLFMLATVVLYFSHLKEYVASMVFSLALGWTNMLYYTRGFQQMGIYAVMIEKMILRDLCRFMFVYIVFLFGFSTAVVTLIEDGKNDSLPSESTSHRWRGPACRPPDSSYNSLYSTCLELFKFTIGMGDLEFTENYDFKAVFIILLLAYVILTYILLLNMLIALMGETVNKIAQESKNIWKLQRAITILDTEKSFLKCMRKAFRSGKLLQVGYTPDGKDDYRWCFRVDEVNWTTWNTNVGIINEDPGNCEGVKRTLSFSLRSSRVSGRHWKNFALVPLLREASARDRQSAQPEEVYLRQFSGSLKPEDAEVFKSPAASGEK

Compound: O=C(Cc1cccc(F)c1)NCc1cc(C(F)(F)F)nn1-c1cccc(Cl)c1 [Example 74, N-((1-(3-chlorophenyl)-3-(trifluoromethyl)-1H-pyrazol-5-yl)methyl)-2-(3-fluorophenyl)acetamide]
- inhibition at 2.5 µM [1]: 12%
- FTm [2]: 13%
